# Tests used:
# [1] = Inhibition of alpha-glucosidase (unknown origin); design: species or system Homo sapiens
# [2] = target: T1, Tyrosine-protein phosphatase non-receptor type 1 (Homo sapiens, UniProt P18031); experiment: Inhibition of PTP1B (unknown origin)
# T1 sequence (P18031 whole entry): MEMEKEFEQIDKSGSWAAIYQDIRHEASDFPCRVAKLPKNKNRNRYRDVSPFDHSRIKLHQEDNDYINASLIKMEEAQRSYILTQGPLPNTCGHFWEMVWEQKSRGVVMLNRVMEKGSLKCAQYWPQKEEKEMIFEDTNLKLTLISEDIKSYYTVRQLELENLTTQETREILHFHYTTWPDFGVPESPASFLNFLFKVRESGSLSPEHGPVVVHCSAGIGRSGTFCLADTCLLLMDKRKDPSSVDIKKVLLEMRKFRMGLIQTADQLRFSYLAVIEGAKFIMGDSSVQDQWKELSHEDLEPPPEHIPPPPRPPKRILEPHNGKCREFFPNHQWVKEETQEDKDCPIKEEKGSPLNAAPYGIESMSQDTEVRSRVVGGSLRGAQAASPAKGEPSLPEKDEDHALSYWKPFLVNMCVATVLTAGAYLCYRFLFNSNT
# [3] = target: Dipeptidyl peptidase 4 (Homo sapiens, UniProt P27487)
# Dipeptidyl peptidase 4, sequence (P27487 whole entry): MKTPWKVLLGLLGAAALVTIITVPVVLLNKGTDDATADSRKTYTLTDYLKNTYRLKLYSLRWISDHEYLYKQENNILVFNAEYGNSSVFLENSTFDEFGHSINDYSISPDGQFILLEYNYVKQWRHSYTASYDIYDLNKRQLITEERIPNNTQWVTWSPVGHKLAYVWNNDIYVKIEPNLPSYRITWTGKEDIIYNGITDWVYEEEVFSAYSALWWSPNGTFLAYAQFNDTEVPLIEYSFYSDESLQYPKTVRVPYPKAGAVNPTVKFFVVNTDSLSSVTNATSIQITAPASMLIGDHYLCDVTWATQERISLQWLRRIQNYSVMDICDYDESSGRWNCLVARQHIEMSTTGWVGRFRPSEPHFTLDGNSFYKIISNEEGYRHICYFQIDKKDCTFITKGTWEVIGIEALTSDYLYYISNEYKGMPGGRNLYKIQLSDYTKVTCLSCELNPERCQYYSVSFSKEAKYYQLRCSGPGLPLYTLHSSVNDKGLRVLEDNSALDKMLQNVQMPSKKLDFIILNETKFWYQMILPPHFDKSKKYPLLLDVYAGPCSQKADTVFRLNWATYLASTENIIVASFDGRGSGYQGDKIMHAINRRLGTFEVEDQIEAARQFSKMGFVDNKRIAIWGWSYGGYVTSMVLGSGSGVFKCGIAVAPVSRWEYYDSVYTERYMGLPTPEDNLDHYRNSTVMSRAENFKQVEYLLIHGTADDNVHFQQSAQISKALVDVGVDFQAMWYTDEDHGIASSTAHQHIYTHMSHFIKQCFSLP
# Description: Inhibition of DPP4 (unknown origin)
Structure (SMILES),IC50 [1] [µM],other results
Cc1cccc(NC(=O)CSc2nnc(CCCc3c[nH]c4ccccc34)o2)c1,9.37,
COc1cc(CC2SC(=O)NC2=O)ccc1OS(=O)(=O)c1ccccc1 (stereo not given),,IC50 [2]: 8.73 µM
COc1cc(CC2SC(=O)NC2=O)ccc1OS(C)(=O)=O (stereo not given),,IC50 [2]: 7.31 µM
O=c1oc2ccc(Br)cc2cc1-c1nn(-c2ccccc2)cc1-c1nc(-c2ccccc2)c(-c2ccccc2)n1-c1ccc(Cl)cc1,2.53,
N#C[C@@H]1CCCN1C(=O)[C@@H](N)Cc1ccc(-c2cn(C3CC3)nn2)cc1,,IC50 [3]: 0.247 µM
O=C1/C(=C/c2ccc(-c3ccccc3)cc2)NC(=S)C1c1ccccc1 (stereo not given),,IC50 [2]: 2.9 µM
Cc1cccc(NC(=O)CSc2nnc(CCCc3c[nH]c4ccccc34)o2)c1C,9.46,
COc1ccc(-c2ccc(O[C@H](C)Cn3cc(-c4ccc(C(F)(F)F)cc4)nn3)c(OC)c2)cc1,14.2,
CC(C)(C)OC(=O)N[C@@H](Cc1ccc(OCc2ccc(-c3ccccc3C#N)cc2)cc1)C(=O)O,,IC50 [2]: 44 µM
CC(C)(C)OC(=O)N[C@@H](Cc1ccc(OCc2nc3ccccc3[nH]2)cc1)C(=O)O,,IC50 [2]: 43.6 µM
O=C(CSc1nc2cc(Cl)ccc2s1)Nc1cccc(-c2nnn[nH]2)c1,,IC50 [2]: 1.88 µM
CCn1c(O)c(C(c2ccc(Cl)cc2Cl)c2c(O)n(CC)c(=S)n(CC)c2=O)c(=O)n(CC)c1=S,19.4,
CC#CC(CC(=O)O)c1ccc(OCc2cccc(CN3CCC4N=C(C5CC5)OC4C3)c2)cc1 (stereo not given),,EC50 [3]: 0.0012 µM
O=[N+]([O-])c1cccc(/C=N/N2C(c3ccccc3)=Nc3ccc(I)cc3C2NC2NC=CS2)c1 (stereo not given),,IC50 [3]: 0.00076 µM
COc1cc(-n2cc(CCC(=O)N[C@@H]3C[C@H](CO)[C@@H](O)[C@H](O)[C@H]3O)nn2)cc(OC)c1OC,121,
Cc1nn(-c2ccc(Nc3cccc(Cl)c3)nn2)c(C)c1[N+](=O)[O-],19.3,
CCOC(=O)c1c(C(C)C)cc(C(C)C)c(C(=O)OCC)c1-c1cc2ccc(-c3ccc4c(C)cccc4c3)cc2[nH]1,,IC50 [3]: 0.00272 µM
O=c1c2ccccc2nc(SCc2cn(Cc3ccc(Br)cc3)nn2)n1CCc1ccccc1,181,
Cc1ccc(C(c2c[nH]c3ccc(C(=O)NNS(=O)(=O)c4cc(Cl)c(Cl)cc4Cl)cc23)c2c[nH]c3ccc(C(=O)NNS(=O)(=O)c4cc(Cl)c(Cl)cc4Cl)cc23)cc1,0.1,
O=C(Cn1cc(Cn2c3ccccc3c3ccccc32)nn1)c1ccc(O)c(Br)c1,1,
O=c1oc2ccccc2cc1-c1nn(C(Nc2ccc(Oc3ccc(NC(c4cccc(Br)c4)n4nc(-c5cc6ccccc6oc5=O)oc4=S)cc3)cc2)c2cccc(Br)c2)c(=S)o1 (stereo not given),0.07,
c1cncc(Cn2cc(Cn3c4ccccc4c4ccccc43)nn2)c1,0.8,
COc1ccc(CCn2c(SCc3cn(Cc4ccc(Br)cc4)nn3)nc3ccccc3c2=O)cc1OC,192,
O=C(C[C@@H](c1cccs1)c1c[nH]c2ccccc12)c1ccc2ccccc2c1,11.8,
O=C(Cn1cc(CSc2nnc(-c3ccccc3)c(-c3ccccc3)n2)nn1)Nc1cc(Cl)ccc1Cl,11.6,
O=C1Nc2ccccc2C1(c1cn(Cc2ccccc2F)c2ccccc12)c1cn(Cc2ccccc2F)c2ccccc12,5.98,
CC#CCn1c(N2CCC[C@H](N)C2)cc(=O)n(Cc2nc(C)c3cc(C)ccc3n2)c1=O,,IC50 [3]: 0.00578 µM
COc1ccc(-c2csc(NC(=O)CSc3nnc(-c4ccc(Br)cc4)c(-c4ccc(Br)cc4)n3)n2)cc1,2.85,
CC1=NN(c2ccc([N+](=O)[O-])cc2)C(=O)/C1=C/c1cn(-c2ccccc2)nc1-c1cc2cc(Br)ccc2oc1=O,2.1,
N[C@@H]1CN(c2ncc(Oc3c[nH]nc3C3=CCC(F)(F)CC3)cn2)C[C@@H]1c1cc(F)c(F)cc1F,,IC50 [3]: 0.006 µM
